Data published in US9393193B2, “Compositions for controlling heartworm infestation” (CEVA SANTA ANIMALE, priority 2010, dated 2016).

Assays:
[1] = estimated from reports from non recommended use; cited from earlier work
[2] = 14-week oral, cited from earlier work
[3] = beagle dogs, cited from earlier work
Dirofilaria = assay: Effective plasma rate of ivermectin established by the applicant; format: in vivo
Source text: Thus, the formulations according to the present invention provide a long term protection, e.g., at least 6 months for the collar, strip collar, or medallion formulation against infections caused by parasites.

Dirofilaria larvae = details: cited from earlier work

Substance: ivermectin
- Share of collie dogs highly sensitive to ivermectin [1]: Approximately 30%
- Severe findings, dogs killed prior to the end of the study ([2]; 2.0 mg/kg bw group, four dogs): tremors, ataxia, anorexia and dehydration
- Findings observed ([2]; 1.0 and 2.0 mg/kg bw, beagle dogs): mydriasis and slight weight loss
- No Observable Effect Level (NOEL) ([2]; beagle dogs): 0.5 mg/kg bw
- Time course of H2B1a concentration in plasma ([3]; oral 0.5 and 2.0 mg/kg bw): reached steady-state after about three weeks
- Average increase in plasma levels on a four-fold increase in the dose ([3]; oral 0.5 vs 2.0 mg/kg bw): eight-fold increase
- Effective rate of ivermectin in the plasma (Dirofilaria): around 0.1 ng/mL
- Effective rate of ivermectin in the plasma (Dirofilaria larvae; Cunningham C P et al., Am. J. Vet. Res., 2006): ≥ 0.2 ng/mL
- Effect on one month aged Dirofilaria larvae (Dirofilaria larvae; ivermectin per se at 6 mcg/kg): able to kill efficiency one month aged Dirofilaria larvae
